Laboratory results published in patent US11547681B2, “N-acylethanolamide derivatives and uses thereof” (ELIEM THERAPEUTICS, INC., priority 2016, dated 2023).

Experiment: in vitro
Details: for Concentration, analyte PEA / % Remaining of Initial (n = 1) / Measured concentration of analyte PEA, 0 min / Measured concentration of analyte PEA, 10 min / Measured concentration of analyte PEA, 20 min / Measured concentration of analyte PEA, 30 min / Measured concentration of analyte PEA, 60 min / % Remaining of Initial, 0 min / % Remaining of Initial, 10 min / % Remaining of Initial, 20 min / % Remaining of Initial, 30 min / % Remaining of Initial, 60 min: 1 μM; for % Remaining of Initial (n = 1) / microsomal CLint at 1 μM / half-life at 1 μM / % Remaining of Initial, 0 min / % Remaining of Initial, 10 min / % Remaining of Initial, 20 min / % Remaining of Initial, 30 min / % Remaining of Initial, 60 min: microsomes
Procedure: The reaction mixture, minus cofactors, was prepared as described below. The test article was added into the reaction mixture at a final concentration of 1 μM. […] An aliquot of the reaction mixture (without cofactor) was equilibrated in a shaking water bath at 37° C. for 3 minutes. The reaction was initiated by the addition of cofactor, and the mixture was incubated in a shaking water bath at 37° C. Aliquots (100 μL) were withdrawn at 0, 10, 20, 30, and 60 minutes. All samples were immediately combined with 400 μL of ice-cold 50/50 acetonitrile/H2O containing 0.1% formic acid and internal standard to terminate the reaction. The samples were then mixed and centrifuged to precipitate proteins. Calibration standards were prepared in matched matrix. All samples and standards were assayed by LC-MS/MS using electrospray ionization for both the dosed prodrug I-9 and the expected drug (PEA). Analytical conditions are outlined in Appendix 4-1. The test article concentration at each time point was compared to the test article concentration at time 0 to determine the percent remaining at each time point. Half-lives were calculated using GraphPad software, fitting to a single-phase exponential decay equation.
Reaction mixture, minus cofactors, was prepared as described below. Test article was added into the reaction mixture at a final concentration of 1 μM. […] An aliquot of the reaction mixture (without cofactor) was equilibrated in a shaking water bath at 37° C. for 3 minutes. The reaction was initiated by the addition of cofactor, and the mixture was incubated in a shaking water bath at 37° C. Aliquots (100 μL) were withdrawn at 0, 10, 20, 30, and 60 minutes. Test article samples were immediately combined with 300 μL of ice-cold acetonitrile containing 1% formic acid. Control samples were immediately combined with 400 μL of ice-cold 50/50 acetonitrile (ACN)/dH2O containing 0.1% formic acid and internal standard to terminate the reaction. Samples were then mixed and centrifuged to precipitate proteins. Calibration standards were prepared in matched matrix. Samples and standards were assayed by LC-MS/MS using electrospray ionization for both dosed prodrug and expected drug (PEA). Analytical conditions are outlined in Appendix 8-1. Test article concentration at each time point was compared to test article concentration at time 0 to determine the percent remaining at each time point. Half-lives were calculated using GraphPad software, fitting to a single-phase exponential decay equation.
Reaction mixture, minus cofactors, was prepared as described below. Test article was added into the reaction mixture at a final concentration of 1 μM. […] An aliquot of the reaction mixture (without cofactor) was equilibrated in a shaking water bath at 37° C. for 5 minutes. Reaction was initiated by the addition of cofactor, and the mixture was incubated in a shaking water bath at 37° C. Aliquots (100 μL) were withdrawn at 0, 10, 20, 30, and 60 minutes. Test article samples were immediately combined with 300 μL of ice-cold acetonitrile containing 1% formic acid. Control samples were immediately combined with 400 μL of ice-cold 50/50 acetonitrile (ACN)/dH2O containing 0.1% formic acid and internal standard to terminate the reaction. Samples were then mixed and centrifuged to precipitate proteins. Calibration standards were prepared in matched matrix. Samples and standards were assayed by LC-MS/MS using electrospray ionization for both the dosed prodrug and the expected drug (PEA). Analytical conditions are outlined in Appendix 10-1. Test article concentration at each time point was compared to the test article concentration at time 0 to determine the percent remaining at each time point. Half-lives were calculated using GraphPad software, fitting to a single-phase exponential decay equation.
Reaction mixture, minus cofactors, was prepared as described below. Test article was added into the reaction mixture at a final concentration of 1 μM.

[1] = male, Sprague-Dawley, rat, 0 min
[2] = male, Sprague-Dawley, rat, 10 min
[3] = male, Sprague-Dawley, rat, 20 min
[4] = male, Sprague-Dawley, rat, 30 min
[5] = male, Sprague-Dawley, rat, 60 min
[6] = male, Sprague-Dawley, rat, 0.5 h
[7] = male, Sprague-Dawley, rat, Half-life

Question: With CCCCC/C=C\C/C=C\CCCCCCCC(=O)OCC(COC(=O)CCC(=O)OCCNC(=O)CCCCCCCCCCCCCCC)OC(=O)CCCCCCC/C=C\C/C=C\CCCCC (stereo not shown) [Compound I-13] as the compound, how does the “Concentration, analyte PEA” value (both, human, 0 min) read?
Answer: 0 nM

Question: And the “Concentration, analyte PEA” value (both, human, 10 min)?
Answer: 0 nM

Question: What about the “Concentration, analyte PEA” value (both, human, 20 min) of the same compound?
Answer: 0 nM

Question: What about the “Concentration, analyte PEA” value (both, human, 30 min) of the same compound?
Answer: 0 nM

Question: What about the “Concentration, analyte PEA” value (both, human, 60 min) of the same compound?
Answer: 0 nM

Question: And the “% Remaining of Initial (n = 1)” value (both, human, 0 h)?
Answer: 100%

Question: What about the “% Remaining of Initial (n = 1)” value (both, human, 10 min) of the same compound?
Answer: 79%

Question: What about the “% Remaining of Initial (n = 1)” value (both, human, 20 min) of the same compound?
Answer: 73%

Question: What about the “% Remaining of Initial (n = 1)” value (both, human, 0.5 h) of the same compound?
Answer: 60%

Question: What about the “% Remaining of Initial (n = 1)” value (both, human, 1 h) of the same compound?
Answer: 42%

Question: What about the microsomal CLint at 1 μM (both, human) of the same compound?
Answer: 29.6 µL/min/mg

Question: And the half-life at 1 μM (both, human, Half-life)?
Answer: 47 min

Question: And the “Concentration, analyte PEA” value [1]?
Answer: 0 nM

Question: What about the “Concentration, analyte PEA” value [2] of the same compound?
Answer: 0 nM

Question: And the “Concentration, analyte PEA” value [3]?
Answer: 13 nM

Question: And the “Concentration, analyte PEA” value [4]?
Answer: 13 nM

Question: And the “Concentration, analyte PEA” value [5]?
Answer: 0 nM

Question: What about the “% Remaining of Initial (n = 1)” value (male, Sprague-Dawley, rat, 0 h) of the same compound?
Answer: 100%

Question: And the “% Remaining of Initial (n = 1)” value [2]?
Answer: 91%

Question: What about the “% Remaining of Initial (n = 1)” value [3] of the same compound?
Answer: 72%

Question: And the “% Remaining of Initial (n = 1)” value [6]?
Answer: 60%

Question: And the “% Remaining of Initial (n = 1)” value (male, Sprague-Dawley, rat, 1 h)?
Answer: 38%

Question: What about the microsomal CLint at 1 μM (male, Sprague-Dawley, rat) of the same compound?
Answer: 33.6 µL/min/mg

Question: What about the half-life at 1 μM [7] of the same compound?
Answer: 41 min

Question: Which “Measured concentration of analyte PEA, 0 min” value (both, human, 0 min) does the source give for CCCCCCCCCCCCCCCC(=O)NCCOC(=O)CCC [Compound I-2] here?
Answer: 0.15 µM

Question: And the “Measured concentration of analyte PEA, 10 min” value (both, human, 10 min)?
Answer: 0.23 µM

Question: And the “Measured concentration of analyte PEA, 20 min” value (both, human, 20 min)?
Answer: 0.19 µM

Question: What about the “Measured concentration of analyte PEA, 30 min” value (both, human, 30 min) of the same compound?
Answer: 0.15 µM

Question: And the “Measured concentration of analyte PEA, 60 min” value (both, human, 60 min)?
Answer: 0.071 µM

Question: And the “% Remaining of Initial, 0 min” value (both, human, 0 h)?
Answer: 100%

Question: And the “% Remaining of Initial, 10 min” value (both, human, 10 min)?
Answer: 10%

Question: What about the “% Remaining of Initial, 20 min” value (both, human, 20 min) of the same compound?
Answer: 1.6%

Question: And the “% Remaining of Initial, 30 min” value (both, human, 0.5 h)?
Answer: <1.0%

Question: And the “% Remaining of Initial, 60 min” value (both, human, 1 h)?
Answer: <1.0%

Question: And the microsomal CLint at 1 μM (both, human)?
Answer: 451 µL/min/mg

Question: What about the half-life at 1 μM (both, human, Half-life) of the same compound?
Answer: 3.1 min

Question: What about the “Measured concentration of analyte PEA, 0 min” value [1] of the same compound?
Answer: 0.40 µM

Question: What about the “Measured concentration of analyte PEA, 10 min” value [2] of the same compound?
Answer: 0.11 µM

Question: What about the “Measured concentration of analyte PEA, 20 min” value [3] of the same compound?
Answer: 0.028 µM

Question: What about the “Measured concentration of analyte PEA, 30 min” value [4] of the same compound?
Answer: 0.0083 µM

Question: What about the “Measured concentration of analyte PEA, 60 min” value [5] of the same compound?
Answer: 0 µM

Question: And the “% Remaining of Initial, 0 min” value (male, Sprague-Dawley, rat, 0 h)?
Answer: 100%

Question: And the “% Remaining of Initial, 10 min” value [2]?
Answer: <1.0%

Question: What about the “% Remaining of Initial, 20 min” value [3] of the same compound?
Answer: <1.0%

Question: And the “% Remaining of Initial, 30 min” value [6]?
Answer: <1.0%

Question: And the “% Remaining of Initial, 60 min” value (male, Sprague-Dawley, rat, 1 h)?
Answer: <1.0%

Question: What about the microsomal CLint at 1 μM (male, Sprague-Dawley, rat) of the same compound?
Answer: > 1380 µL/min/mg

Question: And the half-life at 1 μM [7]?
Answer: < 1 min

Question: Which results are given for CCCCCCCCCCCCCCCC(=O)NCCOC(=O)CCC(=O)OCC(COC(=O)CCCCCCC)OC(=O)CCCCCCC (stereo not shown) [Compound I-3, PEA-Succinate-Glycerol-Di-Caprylic]?
Answer: Measured concentration of analyte PEA, 0 min (both, human, 0 min): 0 µM; Measured concentration of analyte PEA, 10 min (both, human, 10 min): 0.026 µM; Measured concentration of analyte PEA, 20 min (both, human, 20 min): 0.017 µM; Measured concentration of analyte PEA, 30 min (both, human, 30 min): 0.019 µM; Measured concentration of analyte PEA, 60 min (both, human, 60 min): 0.027 µM; % Remaining of Initial, 0 min (both, human, 0 h): 100%; % Remaining of Initial, 10 min (both, human, 10 min): 83%; % Remaining of Initial, 20 min (both, human, 20 min): 79%; % Remaining of Initial, 30 min (both, human, 0.5 h): 74%; % Remaining of Initial, 60 min (both, human, 1 h): 53%; microsomal CLint at 1 μM (both, human): < 23.1 µL/min/mg; microsomal CLint at 1 μM (both, human, calculated value in parentheses): 20 µL/min/mg; half-life at 1 μM (both, human, Calculated half-life (in parentheses)): 69 min; half-life at 1 μM (both, human, Half-life): > 60 min; Measured concentration of analyte PEA, 0 min [1]: 0.032 µM; Measured concentration of analyte PEA, 10 min [2]: 0.039 µM; Measured concentration of analyte PEA, 20 min [3]: 0.018 µM; Measured concentration of analyte PEA, 30 min [4]: 0.0067 µM; Measured concentration of analyte PEA, 60 min [5]: 0 µM; % Remaining of Initial, 0 min (male, Sprague-Dawley, rat, 0 h): 100%; % Remaining of Initial, 10 min [2]: 81%; % Remaining of Initial, 20 min [3]: 88%; % Remaining of Initial, 30 min [6]: 72%; % Remaining of Initial, 60 min (male, Sprague-Dawley, rat, 1 h): 68%; microsomal CLint at 1 μM (male, Sprague-Dawley, rat): < 23.1 µL/min/mg; microsomal CLint at 1 μM (male, Sprague-Dawley, rat, calculated value in parentheses): 12.4 µL/min/mg; half-life at 1 μM (male, Sprague-Dawley, rat, Calculated half-life (in parentheses)): 112 min; half-life at 1 μM [7]: > 60 min
